Reference: US20060183780A1, “Pyrazole compounds useful in the treatment of inflammation” (priority 2003, published 2006)

Target: T1, 15-lipoxygenase (Homo sapiens, UniProt P16050)
T1 sequence (P16050 1-662): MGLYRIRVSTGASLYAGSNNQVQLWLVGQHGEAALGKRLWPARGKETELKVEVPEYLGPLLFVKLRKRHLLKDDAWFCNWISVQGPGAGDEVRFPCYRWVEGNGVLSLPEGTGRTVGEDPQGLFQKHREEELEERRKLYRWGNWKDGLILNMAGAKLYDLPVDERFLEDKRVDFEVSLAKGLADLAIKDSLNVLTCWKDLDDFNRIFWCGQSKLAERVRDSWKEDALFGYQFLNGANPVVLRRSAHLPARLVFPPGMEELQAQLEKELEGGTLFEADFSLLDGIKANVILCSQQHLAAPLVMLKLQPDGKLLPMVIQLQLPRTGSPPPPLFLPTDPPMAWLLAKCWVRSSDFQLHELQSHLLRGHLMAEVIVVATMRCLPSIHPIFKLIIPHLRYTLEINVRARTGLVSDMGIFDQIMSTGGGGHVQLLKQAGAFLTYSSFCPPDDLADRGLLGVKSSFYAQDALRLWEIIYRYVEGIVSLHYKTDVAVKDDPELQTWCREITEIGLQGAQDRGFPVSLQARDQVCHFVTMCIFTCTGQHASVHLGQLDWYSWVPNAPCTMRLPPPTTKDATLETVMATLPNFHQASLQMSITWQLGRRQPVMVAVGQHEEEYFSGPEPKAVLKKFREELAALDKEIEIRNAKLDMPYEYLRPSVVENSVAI
Assay: 15-lipoxygenase inhibition, DPPP fluorescence assay with linoleic acid
Format: biochemical
Conditions: biological test method; test concentration not given
Method: The assay employed takes advantage of the ability of lipid hydroperoxides to oxidize the non-fluorescent diphenyl-1-pyrenylphosphine (DPPP) to its corresponding fluorescent phosphine oxide. Fluorescence is measured using a dual-scanning microplate spectrofluorometer, Spectramax Gemini, from Molecular Devices. DPPP was purchased from Molecular Probes. Linoleic acid was from Biomol and PBS (phosphate buffered saline) from Gibco Life Technologies. The assay is performed in 96-well plates at room temperature (20-22° C.). The following are added (in the following order) to each well:
a) 35 μl of Dulbecco's phosphate buffered saline (PBS);
b) inhibitor (i.e. compound) or vehicle (0.5 μl DMSO);
c) 10 μL of a 5× concentrated 15-lipoxygenase solution in PBS. The plates are incubated for 5 minutes at room temperature;
d) 5 μl of 2 mM linoleic acid in PBS. The plate is then incubated for 20 minutes at room temperature;
e) the enzymatic reaction is terminated by the addition of 50 μl methanol; and
f) 50 μl of 200 μM DPPP in methanol is added to each well.
After 30 minutes at room temperature, the fluorescence can be read using an excitation wavelength of 358 nm and an emission wavelength of 379 nm.

Row | inhibition of 15-lipoxygenase | Structure (SMILES)
1 | 39% | CCOc1ccccc1C(=O)n1ccc(C(=O)Nc2cc(C)no2)n1 [Example 14, 1-(2-Ethoxybenzoyl)-1H-pyrazole-3-carboxylic acid (3-methylisoxazol-5-yl)amide]
2 | 45% | CCOc1ccccc1C(=O)n1ccc(C(=O)Nc2cc(Cl)ccc2C#N)n1 [Example 26, 1-(2-Ethoxybenzoyl)-1H-pyrazole-3-carboxylic acid (5-chloro-2-cyanophenyl)amide]

The remaining lines, values behind:

Row | Structure (SMILES) | inhibition of 15-lipoxygenase
3 | O=C(Nc1cccnc1)c1ccn(C(=O)c2ccccc2)n1 [Example 1, 1-Benzoyl-1H-pyrazole-3-carboxylic acid pyridin-3-ylamide] | 45%
4 | COC(=O)c1ccsc1NC(=O)c1ccn(C(=O)c2cc(F)ccc2C)n1 [Example 8, 2-{[1-(5-Fluoro-2-methylbenzoyl)-1H-pyrazole-3-carbonyl]amino}-thiophene-3-carboxylic acid methyl ester] | 50%
5 | CCCCCc1ccc(C(=O)n2ccc(C(=O)Nc3ccc(N(C)C)cc3)n2)cc1 [Example 23, 1-(4-Pentylbenzoyl)-1H-pyrazole-3-carboxylic acid (4-dimethylaminophenyl)amide] | 44%
